Source: PubChem BioAssay (NCI)
“And” between values parts separate entries of the source, which are not always exact repeats. Identical values can stand only once.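 Compound exposure: 48 hours, 5 concentrations, 96-well plates. GI50 is the concentration that inhibits growth by half. Definition used: TGI = concentration required for complete inhibition of growth.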

Key:
Test in all cases: inhibition of tumour cell growth, NCI panel, 48 h
786-0 renal = tested on: 786-0 renal
OVCAR-8 ovarian = tested on: OVCAR-8 ovarian
UACC-62 melanoma = tested on: UACC-62 melanoma
SNB-19 CNS = tested on: SNB-19 CNS
SF-295 CNS = tested on: SF-295 CNS
SNB-75 CNS = tested on: SNB-75 CNS
UACC-257 melanoma = tested on: UACC-257 melanoma
A549 NSCLC = tested on: A549 NSCLC
HOP-62 NSCLC = tested on: HOP-62 NSCLC
CAKI-1 renal = tested on: CAKI-1 renal

SMILES	GI50 (786-0 renal) [µM]	TGI (786-0 renal) [µM]	GI50 (OVCAR-8 ovarian) [µM]	TGI (OVCAR-8 ovarian) [µM]	GI50 (UACC-62 melanoma) [µM]	TGI (UACC-62 melanoma)	GI50 (SNB-19 CNS) [µM]	TGI (SNB-19 CNS) [µM]	GI50 (SF-295 CNS) [µM]	TGI (SF-295 CNS) [µM]	GI50 (SNB-75 CNS) [µM]	TGI (SNB-75 CNS)	GI50 (UACC-257 melanoma) [µM]	TGI (UACC-257 melanoma) [µM]	GI50 (A549 NSCLC) [µM]	TGI (A549 NSCLC) [µM]	GI50 (HOP-62 NSCLC) [µM]	TGI (HOP-62 NSCLC)	GI50 (CAKI-1 renal) [µM]	TGI (CAKI-1 renal)
CN(C)CC1CCn2c(c(C3=C(c4cn(C)c5ccccc45)C(=O)NC3=O)c3ccccc32)C1 (stereo not drawn)	4.26	8.17	4.62	9.87	3.91	7.49 µM	4.84	10.4	4.46	9.06	0.772	5.28 µM	3.93	7.52	4.5	9.06	4.55	8.91 µM	3.44	7.66 µM
CC(=O)OCC1OC(S[As](C)C)C(OC(C)=O)C1OC(C)=O (stereo not drawn)	0.176	0.77	0.272	1.57	0.357	1.52 µM	9.06	29.5	2.06	7.33	0.511	1.99 µM	1.57	7.06	1.94	13.6	3.35	15.2 µM	0.0791	0.453 µM
CO[C@H](C(=O)N[C@@H](CCCCNC(=O)OCc1ccccc1)C(=O)OC(C)(C)C)[C@@H]1Cc2cc3cc(OC4CC(OC5CC(O)C(O)C(C)O5)C(O)C(C)O4)c(C)c(O)c3c(O)c2C(=O)[C@H]1OC1CC(OC2CC(OC3CC(C)(O)C(O)C(C)O3)C(O)C(C)O2)C(O)C(C)O1 (stereo partly drawn)	0.563	1.88	0.697	> 10	0.369	1.7 µM	0.52	2.6	0.468	1.72	0.541	1.97 µM	0.812	4.01	0.821	5.28	0.464	2.73 µM	1.04	3.42 µM
CN=S(=O)(C[C@]1(O)CC2OC1C1OC(C)(C)OC21)c1ccccc1 (stereo partly drawn)		> 100		> 100		> 100 µM		> 100		> 100		> 100 µM		> 100		> 100		> 100 µM		> 100 µM
NC(=O)Oc1cc(OC(N)=O)cc(N(CCCl)CCCl)c1	4.28	22.8	5.74	67.6	4.1	18.4 µM	10.6	> 100	2.89	> 100	2.71	25.3 µM	12.1	53.6	5.13	69	20.9	> 100 µM	2.97	80.4 µM
Cc1ccc(C(=O)NC2CCCCC2)cc1-c1ccc(C(=O)NCC2CC2)cc1	> 25	> 25	> 25	> 25	17	> 25 µM	> 25	> 25	10.8	> 25	> 25	> 25 µM	> 25	> 25	12.4	> 25	> 25	> 25 µM	24.9	> 25 µM
C=CCN(N=O)C(=O)N(CCC)CCCCC(NC(C)=O)C(=O)NCc1ccccc1 (stereo not drawn)		> 100		> 100		> 100 µM		> 100		> 100		> 100 µM		> 100		> 100		> 100 µM		> 100 µM
Cn1cnc2c(NCc3ccccc3)nc(NCCO)nc21	105	> 435	90.5	391	67.5	> 89.9 µM and 302 µM	98.9	382	122	> 500	64.7	70.8 µM and 150 µM	155	> 474	105	> 458		> 86 µM and 183 µM	63.6	> 90.6 µM and 265 µM
CCOC(=O)C1=C(C)N(NC(=O)c2ccccc2)C2(O)CCCC12C(=O)OCC (stereo not drawn)		> 100		> 100		> 100 µM		> 100		> 100		> 100 µM		> 100		> 100		> 100 µM		> 100 µM
CCOC(=O)/C=C1\Nc2ccccc2-n2nnnc21		> 100		> 100		> 100 µM		> 100		> 100		> 100 µM		> 100		> 100		> 100 µM		> 100 µM
CCOC(=O)c1c(Cl)c2c(n1Cc1cc(OC)cc(OC)c1)-c1oncc1CCC2	1.47	> 71.4	0.479	> 100	0.193	> 100 µM	0.629	> 100	0.246	1.8	0.229	4.41 µM	0.92	> 100	0.419	> 100	0.466	> 33.3 µM	0.29	> 60.7 µM
CN(CCC(=O)O)S(=O)(=O)c1ccccc1		> 100		> 100		> 100 µM		> 100		> 100		> 100 µM		> 100		> 100		> 100 µM		> 100 µM
O=C(CC1(O)C(=O)Nc2c(Cl)cc(Cl)cc21)c1ccc2ccccc2c1 (stereo not drawn)		23.8		26		14.6 µM		25.4		21.3		13.5 µM		27.1		18.2		20.8 µM		19.8 µM
CN1CCN(Cc2ccc(Nc3ncc(Cl)c(Nc4ccccc4S(=O)(=O)N(C)C)n3)cc2)CC1	0.0524	1.28	0.0738		0.0229	0.18 µM	0.0529	2.96	0.0169	> 100	0.0948	0.308 µM	0.0473	0.82	0.0365	1.7	0.0344	0.9 µM	0.0377	1.09 µM
CCN(CC)c1ccc2c(c1)N=C1N=CC=CN1C2(c1ccc(N(C)C)cc1)c1ccc(N(C)C)cc1		24.1		17.5		24.1 µM		24		15.6		24.4 µM		19.5		28		24.3 µM		25.2 µM
